Values of other authors as cited in patent US20240373890A1, “SWEETENER AND FLAVORING COMPOSITIONS PREPARED BY GLYCOSYLATED MOGROSIDES OR MONK FRUIT EXTRACTS, METHOD OF MAKING AND METHOD OF USE THEREOF” (EPC NATURAL PRODUCTS CO., LTD., priority 2021, published 2024).
Residues, ends and D or L forms follow the SMILES beside them.

Settings: depends on the tested concentration compared with sucrose
For `COC(=O)[C@H](Cc1ccccc1)NC(=O)[C@@H](N)CC(=O)O` [Aspartame] (H-Asp-Phe-OMe), the “Sweetness intensity compared with sucrose” value is listed as 160-200 times. In the case of `C[C@H](CC[C@@H](O[C@@H]1O[C@H](CO[C@@H]2O[C@H](CO)[C@@H](O)[C@H](O)[C@H]2O)[C@@H](O)[C@H](O)[C@H]1O[C@@H]1O[C@H](CO)[C@@H](O)[C@H](O)[C@H]1O)C(C)(C)O)[C@H]1CC[C@@]2(C)[C@@H]3CC=C4[C@@H](CC[C@H](O[C@@H]5O[C@H](CO[C@@H]6O[C@H](CO)[C@@H](O)[C@H](O)[C@H]6O)[C@@H](O)[C@H](O)[C@H]5O)C4(C)C)[C@]3(C)[C@H](O)C[C@]12C` [mogroside V], the “Sweetness intensity compared with sucrose” value is given as 250-300 times. In the case of `O=S(=O)([O-])NC1CCCCC1.[Na+]` [sodium cyclamate], the “Sweetness intensity compared with sucrose” value is given as “about 30 times”. For `OC[C@H]1O[C@H](O[C@]2(CCl)O[C@H](CCl)[C@@H](O)[C@@H]2O)[C@H](O)[C@@H](O)[C@H]1Cl` [sucralose], the “Sweetness intensity compared with sucrose” value is listed as “about 600 times”. For thaumatin, the “Sweetness intensity compared with sucrose” value is given as “about 2000 times”.
